Data taken from patent US20110281951A1, “Compositions and methods for treating amyloidosis” (priority 1999, published 2011).

Biological target: T1, IAPP (Homo sapiens, UniProt P10997)
T1 sequence (P10997 34-70 limits assumed): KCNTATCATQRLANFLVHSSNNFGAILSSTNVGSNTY
Test: Thioflavine T spectroscopy, rate of amyloid fibril formation
Format: biochemical
Details: ThT 62.5 μM; excitation 440 nm, emission 482 nm
Description: Detection of ThT fluorescence can be used as a sensitive assay for amyloid fibril formation under different conditions. This assay has been used in experiments to determine the effects of compounds of the invention on amyloid fibril formation.
Human IAPP was dissolved in 40% trifluoroethanol and freeze-dried into conveniently-sized aliquots. IAPP was prepared immediately before the measurements by dissolving in 40% 1,1,1,3,3,3-hexafluoro-2-propanol (HFIP) in water to maintain the peptide in alpha helical conformation and soluble. A stock solution of ThT (2.5 mM) was prepared, 7.9 mg in 10 mL Tris-HCl pH 7.0 and filtered (0.22 μm). Solutions were kept in the dark until use. Fluorescence was examined at 440 nm excitation (slit 5 nm), and emission at 482 nm (slit 10 nm) with stirring. […] of ThT stock (final concentration 62.5 μM) was added to peptide sample and made up to 1 mL in the cuvette. The sample was stirred for 5 min. before taking a reading. Measurements were made at an initial time point (5 min. from sample preparation), at intervals over the next 4-6 h and after overnight incubation at room temperature.

SMILES | IAPP-associated fibril assembly (ThT fluorescence)
O=S(=O)(O)NC1CCCCC1 [LVXI, cyclohexylsulfamic acid] | inhibit or prevent IAPP-associated fibril assembly
N[C@@H](COP(=O)(O)O)C(=O)O [LVXII, O-phospho-L-serine] | inhibit or prevent IAPP-associated fibril assembly
COc1ccc(S(=O)(=O)O)c2cccnc12 [LVXIV, 8-methoxyquinoline-5-sulfonic acid] | inhibit or prevent IAPP-associated fibril assembly
O=S(=O)(O)CCCN1CC=C(c2ccccc2)CC1 [LVXV, 4-Phenyl-1-(3′-sulfopropyl)-1,2,3,6-tetrahydropyridine] | inhibit or prevent IAPP-associated fibril assembly
NCC(O)CS(=O)(=O)O (stereo not drawn) [LVXVI, 3-amino-2-hydroxy-1-propanesulfonic acid] | inhibit or prevent IAPP-associated fibril assembly
CN(C)CCCS(=O)(=O)O [LVXVII, 3-dimethylamino-1-propanesulfonic acid] | inhibit or prevent IAPP-associated fibril assembly

Biological target: T2, Aβ(1-40) (Homo sapiens, UniProt P05067)
T2 construct: Prepare a fresh 40 μm solution of Aβ(1-40) in 0.02M Tris, pH 7.4; made in house; host or cells: chemical synthesis (FMOC), HPLC purified
T2 sequence (P05067 672-711 limits assumed): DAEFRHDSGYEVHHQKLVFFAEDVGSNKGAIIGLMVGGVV
Test: Circular dichroism analysis, pre-incubation assay, β-sheet at 218 nm
Format: biochemical
Details: 0 h; CD 218 nm; 0.02M Tris pH 7.4
Description: The assay is conducted as follows:
Instrument: JASCO J-715 Spectropolarimeter.
Cell/cuvette: Hellma quartz (QS) with 1.0 mm pathlength Room temperature. Wavelength interval: 250 nm-190 nm.
Band width: 1.0 nm Response time: 1 sec Scanning speed: 20 nm/min Number of accumulations/spectrum: 5
1. Prepare a fresh 40 μm solution of Aβ(1-40) in 0.02M Tris, pH 7.4.
2. Prepare a 1 mM solution of test compounds in 0.02M Tris, pH 7.4.
3. Combine equal volumes of the Aβ(1-40) and test compound solutions.
4. Incubate the mixtures for 19 h.
5. Take the CD spectrum using the parameters above.
6. Return the mixtures to the incubator and incubate to 43 h.
7. Take the CD spectrum using the parameters above. • Inhibition of Aβ40 assembly/aggregation is determined by comparing the amount of b-sheet structure) appearing at lambda=218 nm) obtained in control and in treated sample at each timepoint.

SMILES | relative inhibition compared to Aβ alone, incubation time 0 h
O=S(=O)(O)CCCN1CC=C(c2ccccc2)CC1 [LVXV, 4-Phenyl-1-(3′-sulfopropyl)-1,2,3,6-tetrahydropyridine] | + (+: 0-25%)
NCC(O)CS(=O)(=O)O (stereo not drawn) [LVXVI, 3-amino-2-hydroxy-1-propanesulfonic acid] | + (+: 0-25%)

Same assay, conditions: 19 h; CD 218 nm; 0.02M Tris pH 7.4

SMILES | relative inhibition compared to Aβ alone, incubation time 19 h
O=S(=O)(O)CCCN1CC=C(c2ccccc2)CC1 [LVXV, 4-Phenyl-1-(3′-sulfopropyl)-1,2,3,6-tetrahydropyridine] | ++++ (++++: 75-100%)
NCC(O)CS(=O)(=O)O (stereo not drawn) [LVXVI, 3-amino-2-hydroxy-1-propanesulfonic acid] | +++ (+++: 50-75%)

Same assay, conditions: 43 h; CD 218 nm; 0.02M Tris pH 7.4

SMILES | relative inhibition compared to Aβ alone, incubation time 43 h
O=S(=O)(O)CCCN1CC=C(c2ccccc2)CC1 [LVXV, 4-Phenyl-1-(3′-sulfopropyl)-1,2,3,6-tetrahydropyridine] | ++ (++: 25-50%)
NCC(O)CS(=O)(=O)O (stereo not drawn) [LVXVI, 3-amino-2-hydroxy-1-propanesulfonic acid] | ++ (++: 25-50%)

Biological target: T1, IAPP
Test: Circular dichroism analysis of IAPP-associated fibril formation (Example 7)
Format: biochemical
Design: add 10 μL of 10 mg/mL IAPP stock solution (final 100 ng peptide)
Details: molar ratio 1:5 peptide:compound; 24 h
Description: Circular dichroism analysis was conducted to confirm the activity of certain therapeutic compounds in preventing or inhibiting IAPP-associated fibril formation in accordance with the present disclosure by determining the presence or absence of […] conformation.
Instrument: JASCO J-715 Spectropolarimeter
Cell cuvette: Hellma quartz (QS) with 1.0 mm pathlength
Wavelength interval: 250 nm-190 nm
Scanning speed: 20 nm/min
The assay, a co-incubation procedure, examines the ability of a compound or substance to inhibit the assembly of amyloid fibrils, e.g., to test for the presence of the amyloidotic β-sheet conformation in the presence of soluble IAPP. Samples are run in the presence and absence (i.e., water alone) of buffering agent, which is done to determine if competitive effects are seen with the ionic buffer (usually phosphate).
Add components used at a molar ratio of 1:10 [ peptide:compound]; add 10 μL of 10 mg/mL IAPP stock solution (final […] peptide) to the aqueous solution containing compound to a final volume of 400 μL. The pH of the final assay solution is measured to ensure there is no fluctuation and the spectrum is accumulated using the parameters as shown above.
Add desired amount of compound to achieve a 1:10 molar ratio in 10 mM phosphate buffer, pH 7. Add 10 μL of 10 mg/mL IAPP stock solution (final peptide 100 μg) to the phosphate buffered solution containing the compound and bring to a final volume of 400 μL. The pH of the final assay solution is measured to ensure there is no fluctuation and the spectrum is accumulated using the parameters as shown above.
In both assays, a control sample is run with each test group. This control contains peptide only in water or buffer at a similar final volume of 400 μl. Spectra for the control are collected initially (first run) and at the end of the test (final run) to ensure that the peptide has not undergone extensive aggregation during the course of the assay. Spectra for the controls are used to compare with the measurements obtained with the treated samples.
Make fresh 1 mg/mL stock solution of IAPP in 10 mM phosphate buffer, pH 7. Add desired amount of compound to achieve a 1:10 molar ratio in 10 mM phosphate buffer, pH 7. Incubate for 3 days at room temperature. Make up to final volume of 400 μL with 10 mM phosphate buffer, pH 7. The pH of the final assay solution is measured to ensure there is no fluctuation and the spectrum is accumulated using the parameters as shown above.
A similar control is run for comparative purposes.
Plots of the spectra (control and treated) are individually assembled and the changes in ellipticity at 218 nm are examined. This minimum is directly correlated with the amount of β-sheet present in the sample. Changes in either a positive or negative direction are noted and a relative value (“active” or “not active”) assigned to the compound as a measure of activity. In a subsequent experiment with the compounds at a molar ratio of 1:5 [ peptide:compound], the degree of randomness was noted, an indication of the ability of the compounds to prevent amyloid aggregation. A more positive number indicates less β-sheet formation. The ability of a compound to prevent β-sheet formation for at least 24 h is important, as the non-aggregated amyloid fibrils will be excreted in the soluble form. In the control noted below, the decrease in CD (mdegs) may indicate that some of the peptide is aggregating under these conditions.

Conformation at 24 h | SMILES
β | O=S(=O)(O)NC1CCCCC1 [LVXI, cyclohexylsulfamic acid]
Random | N[C@@H](COP(=O)(O)O)C(=O)O [LVXII, O-phospho-L-serine]
β | COc1ccc(S(=O)(=O)O)c2cccnc12 [LVXIV, 8-methoxyquinoline-5-sulfonic acid]
β | CN(C)CCCS(=O)(=O)O [LVXVII, 3-dimethylamino-1-propanesulfonic acid]

SMILES | Conformation at 24 h
O=S(=O)(O)CCCN1CC=C(c2ccccc2)CC1 [LVXV, 4-Phenyl-1-(3′-sulfopropyl)-1,2,3,6-tetrahydropyridine] | Random

Same assay, conditions: molar ratio 1:5 peptide:compound; 24 h; more positive = less β-sheet

CD at 24 h | SMILES
(−1.1) mdegs | O=S(=O)(O)NC1CCCCC1 [LVXI, cyclohexylsulfamic acid]
(−1.3) mdegs | COc1ccc(S(=O)(=O)O)c2cccnc12 [LVXIV, 8-methoxyquinoline-5-sulfonic acid]
(−1.7) mdegs | CN(C)CCCS(=O)(=O)O [LVXVII, 3-dimethylamino-1-propanesulfonic acid]

Same assay, conditions: molar ratio 1:5 peptide:compound; 48 h

Conformation at 48 h | SMILES
β | O=S(=O)(O)NC1CCCCC1 [LVXI, cyclohexylsulfamic acid]
β | N[C@@H](COP(=O)(O)O)C(=O)O [LVXII, O-phospho-L-serine]
β | COc1ccc(S(=O)(=O)O)c2cccnc12 [LVXIV, 8-methoxyquinoline-5-sulfonic acid]
β | CN(C)CCCS(=O)(=O)O [LVXVII, 3-dimethylamino-1-propanesulfonic acid]

SMILES | Conformation at 48 h
O=S(=O)(O)CCCN1CC=C(c2ccccc2)CC1 [LVXV, 4-Phenyl-1-(3′-sulfopropyl)-1,2,3,6-tetrahydropyridine] | β

Same assay, conditions: molar ratio 1:5 peptide:compound; 48 h; more positive = less β-sheet

CD at 48 h [mdegs] | SMILES
−0.8 | O=S(=O)(O)NC1CCCCC1 [LVXI, cyclohexylsulfamic acid]
−2.0 | N[C@@H](COP(=O)(O)O)C(=O)O [LVXII, O-phospho-L-serine]
−0.8 | COc1ccc(S(=O)(=O)O)c2cccnc12 [LVXIV, 8-methoxyquinoline-5-sulfonic acid]
−1.5 | CN(C)CCCS(=O)(=O)O [LVXVII, 3-dimethylamino-1-propanesulfonic acid]

SMILES | CD at 48 h [mdegs]
O=S(=O)(O)CCCN1CC=C(c2ccccc2)CC1 [LVXV, 4-Phenyl-1-(3′-sulfopropyl)-1,2,3,6-tetrahydropyridine] | −1.8

Same assay, conditions: molar ratio 1:5 peptide:compound; T0

Conformation at T0 | SMILES
Random | O=S(=O)(O)NC1CCCCC1 [LVXI, cyclohexylsulfamic acid]
Random | N[C@@H](COP(=O)(O)O)C(=O)O [LVXII, O-phospho-L-serine]
Random | COc1ccc(S(=O)(=O)O)c2cccnc12 [LVXIV, 8-methoxyquinoline-5-sulfonic acid]
Random | CN(C)CCCS(=O)(=O)O [LVXVII, 3-dimethylamino-1-propanesulfonic acid]

SMILES | Conformation at T0
O=S(=O)(O)CCCN1CC=C(c2ccccc2)CC1 [LVXV, 4-Phenyl-1-(3′-sulfopropyl)-1,2,3,6-tetrahydropyridine] | Random

Same assay, conditions: molar ratio 1:10 peptide:compound

Activity (change in ellipticity at 218 nm) | SMILES
Active | O=S(=O)(O)NC1CCCCC1 [LVXI, cyclohexylsulfamic acid]
